Test results from patent US20100003208A1, “Skin Care Products, As Well As Foods and Beverages Containing 6-O-PUFA Ascorbic Esters” (Suntory Holdings Limited, priority 2004, published 2010).

What was measured:
human skin strips = test: Permeability of ascorbic acid to the tissue of human skin strips (modified Bronov diffusion cell); assay type: in vitro ADME; conditions: 100 mM (3.38% w/w; PBS(−)) on keratinized layer, re-dosed at 4 and 17 h, 24 hours; compared with unmodified vitamin C; FIG. 3
Protocol: A human skin section extracted from the right abdominal part of a volunteer with an informed consent was vertically split into small strips, which were set in a modified Bronov diffusion cell chamber. With the underside of the skin immersed in DMEM (2 mL) to supply nutrients, the keratinized layer was aerated with 5% CO2 to maintain the pH of the medium at 7.25. […] The total quantity of vitamin C (the sum of reduced and oxidized forms of vitamin C) and the quantity of reduced form of vitamin C in the epidermis and the dermis were measured; the total quantity of vitamin C was measured in the presence of 16 mM dithiothreitol as a reducing agent, whereas the quantity of reduced form of vitamin C was measured without adding any such reducing agent. The measured values were used to calculate the proportion of total vitamin C as occupied by reduced form of vitamin C. Similarly, 6-O-arachidonoyl ascorbate and 6-O-docosahexaenoyl ascorbate, as well as ascorbic acid (comparison) were evaluated and the results are also shown in FIG. 3.

[1] = tested on: human skin keratocytes HaCaT; test: Protective effect on apoptosis of HaCaT keratocytes under UVA irradiation (WST-1 viability); assay type: cell-based; conditions: 200 μM added 2 hours before 32-48 mJ/cm^2 UVA; WST-1 24 hours after irradiation; FIG. 2
Protocol: Human skin keratocytes HaCaT (the cell line granted by courtesy of Dr. Fusenig at University of Heidelberg) were inoculated on a 24-well plate at a density of 10,000 cells/well in a 10% fetal bovine serum (FBS) containing Dulbecco modified Eagle medium (DMEM); 18 hours later, the medium was irradiated with 32-48 mJ/cm^2 of UVA. Two hours before the irradiation, 100-200 μM of 6-O-dihomo-γ-linolenoyl ascorbate had been added to the medium but it was removed just before the irradiation and the medium was rinsed. UVA irradiation was performed in PBS but in the absence of the drug; after the irradiation, culture was continued in the 10% FBS containing DMEM and 24 hours after the irradiation, the cell viability was evaluated by a mitochondrial dehydrogenase activity assay method using 2-(4-iodophenyl)-3-(4-nitrophenyl)-5-(2,4-disulfophenyl)-2H-tetrazolium monosodium salt (WST-1).

aldose reductase = aldose reductase (Homo sapiens, UniProt P15121); conditions: cited from earlier work
[2] = tested on: streptozotocin-induced diabetic model; conditions: in vivo; cited from earlier work

Question: With `CCCCC/C=C\C/C=C\C/C=C\C/C=C\CCCC(=O)OC[C@H](O)[C@H]1OC(=O)C(O)=C1O` [6-O-arachidonoyl ascorbate] as the molecule, how does the “amount of vitamin C in the dermis” value (human skin strips) read?
Answer: increased markedly

Question: With `CCCCC/C=C\C/C=C\C/C=C\CCCCCCC(=O)OC[C@H](O)[C@H]1OC(=O)C(O)=C1O` [6-O-dihomo-γ-linolenoyl ascorbate] as the molecule, how does the “viability of human skin keratocytes” value [1] read?
Answer: improved the viability

Question: What about the “amount of vitamin C in the dermis” value (human skin strips) of the same molecule?
Answer: increased markedly

Question: For `CCCCC/C=C\C/C=C\C/C=C\CCCCC(=O)OC[C@H](O)[C@H]1OC(=O)C(O)=C1O` [6-O-γ-linolenoyl ascorbate], which “aldose reductase inhibitory action” value (aldose reductase) is on record?
Answer: aldose reductase inhibitory action

Question: What about the “efficacy in streptozotocin-induced diabetic model” value [2] of the same molecule?
Answer: effective
